The text below walks through data of US9874565B2, “Oncogene associated with human cancers and methods of use thereof” (Dana-Farber Cancer Institute, Inc., priority 2013, dated 2018).

SMILES strings stand for the structures.

The subject of the experiment is hMECs transformed with MECP2. Kind of experiment: growth inhibition of hMECs transformed with MECP2 compared with isogenic cells transformed by activated RAS. The format is cell-based, human. The text has this: Because MECP2 only binds to methylated CpG sequences and hydroxymethylcytosine, and because data have shown that oncogenic activation of MECP2 depends upon its DNA-binding region, […] it is likely that the oncogenic activity of MECP2 is mediated by binding of the protein to methylated CpG sequences of hydroxymethylated cytosine. For this reason, it was investigated whether DNA methylation inhibitors hinder cell growth in a MECP2-dependent manner. DNA methylation inhibitors prevent the formation of both methylated CpG sequences and hydroxymethylated cytosine.
MECP2 is known to be present in a complex with Class I histone deacetylases. […] This led to investigation of whether MECP2-transformed cells were particularly vulnerable to HDAC inhibitors. […] Furthermore, it was shown that combined treatment with the DNA methylation inhibitor 5-azacytdine and the HDAC inhibitor Trichostatin A is synergistic in a hMEC experimental system.

In the case of `Nc1ncn([C@@H]2O[C@H](CO)[C@@H](O)[C@H]2O)c(=O)n1` [5-azacytidine], the “sensitivity of hMECs transformed with MECP2 relative to isogenic cells transformed by activated RAS” value (DNA methylation inhibitors, MECP2-transformed vs activated RAS-transformed isogenic hMECs) is “an order of magnitude more sensitive”.

For `CC(/C=C/C(=O)NO)=C\[C@@H](C)C(=O)c1ccc(N(C)C)cc1` [Trichostatin A], the “susceptibility of MECP2-transformed cells relative to isogenic cells transformed by activated RAS” value (HDAC inhibitor, MECP2-transformed vs activated RAS-transformed isogenic cells) is listed as “an order of magnitude more susceptible”.
